# Results from the NIST ThermoML archive (doi:10.1007/s10765-006-0063-0).
# ± gives the expanded uncertainty stated by the source.
# Experiments:
# [1] = xn = mol fraction of the nth substance listed; settings: 101 kPa, Liquid, Sing-around technique in a fixed-path interferometer
# [2] = 101.33 kPa, Liquid; for speed of sound: Sing-around technique in a fixed-path interferometer
smiles,measurement,setting,value
"C1COCCO1 [1,4-dioxane] + c1ccccc1",speed of sound,"[1]; 283.15 K, x1 = 0.0521",1370.8 ± 2.1 m/s
same,speed of sound,"[1]; 283.15 K, x1 = 0.0942",1372.6 ± 2.1 m/s
same,speed of sound,"[1]; 283.15 K, x1 = 0.1987",1376.5 ± 2.1 m/s
same,speed of sound,"[1]; 283.15 K, x1 = 0.2956",1380.2 ± 2.1 m/s
same,speed of sound,"[1]; 283.15 K, x1 = 0.3936",1383.8 ± 2.1 m/s
same,speed of sound,"[1]; 283.15 K, x1 = 0.4947",1387.4 ± 2.1 m/s
same,speed of sound,"[1]; 283.15 K, x1 = 0.5964",1391.1 ± 2.1 m/s
same,speed of sound,"[1]; 283.15 K, x1 = 0.6956",1395.1 ± 2.1 m/s
same,speed of sound,"[1]; 283.15 K, x1 = 0.7963",1399.3 ± 2.1 m/s
same,speed of sound,"[1]; 283.15 K, x1 = 0.8949",1404.1 ± 2.1 m/s
same,speed of sound,"[1]; 283.15 K, x1 = 0.9526",1407.1 ± 2.1 m/s
same,speed of sound,"[1]; 298.15 K, x1 = 0.0516",1300.8 ± 2.1 m/s
same,speed of sound,"[1]; 298.15 K, x1 = 0.0888",1302.4 ± 2.1 m/s
same,speed of sound,"[1]; 298.15 K, x1 = 0.1966",1307.3 ± 2.1 m/s
same,speed of sound,"[1]; 298.15 K, x1 = 0.316",1312.2 ± 2.1 m/s
same,speed of sound,"[1]; 298.15 K, x1 = 0.4145",1316.3 ± 2.1 m/s
same,speed of sound,"[1]; 298.15 K, x1 = 0.5004",1320 ± 2.1 m/s
same,speed of sound,"[1]; 298.15 K, x1 = 0.5975",1324.1 ± 2.1 m/s
same,speed of sound,"[1]; 298.15 K, x1 = 0.6932",1328.4 ± 2.1 m/s
same,speed of sound,"[1]; 298.15 K, x1 = 0.7962",1333.1 ± 2.1 m/s
same,speed of sound,"[1]; 298.15 K, x1 = 0.8938",1338 ± 2.1 m/s
same,speed of sound,"[1]; 298.15 K, x1 = 0.9535",1341.1 ± 2.1 m/s
same,speed of sound,"[1]; 313.15 K, x1 = 0.0568",1232.1 ± 2.1 m/s
same,speed of sound,"[1]; 313.15 K, x1 = 0.0913",1233.6 ± 2.1 m/s
same,speed of sound,"[1]; 313.15 K, x1 = 0.2021",1239.2 ± 2.1 m/s
same,speed of sound,"[1]; 313.15 K, x1 = 0.2963",1243.7 ± 2.1 m/s
same,speed of sound,"[1]; 313.15 K, x1 = 0.3981",1248.6 ± 2.1 m/s
same,speed of sound,"[1]; 313.15 K, x1 = 0.4975",1253.1 ± 2.1 m/s
same,speed of sound,"[1]; 313.15 K, x1 = 0.5981",1257.9 ± 2.1 m/s
same,speed of sound,"[1]; 313.15 K, x1 = 0.6972",1262.7 ± 2.1 m/s
same,speed of sound,"[1]; 313.15 K, x1 = 0.7941",1267.5 ± 2.1 m/s
same,speed of sound,"[1]; 313.15 K, x1 = 0.9034",1273.3 ± 2.1 m/s
same,speed of sound,"[1]; 313.15 K, x1 = 0.9424",1275.5 ± 2.1 m/s
C1CCCC1 [cyclopentane] + C1COCCO1,speed of sound,"[1]; 283.15 K, x2 = 0.0516",1280.7 ± 2.3 m/s
same,speed of sound,"[1]; 283.15 K, x2 = 0.095",1279.4 ± 2.3 m/s
same,speed of sound,"[1]; 283.15 K, x2 = 0.1944",1280.5 ± 2.2 m/s
same,speed of sound,"[1]; 283.15 K, x2 = 0.2987",1286 ± 2.2 m/s
same,speed of sound,"[1]; 283.15 K, x2 = 0.3973",1294.2 ± 2.2 m/s
same,speed of sound,"[1]; 283.15 K, x2 = 0.499",1305.8 ± 2.2 m/s
same,speed of sound,"[1]; 283.15 K, x2 = 0.6003",1320.5 ± 2.1 m/s
same,speed of sound,"[1]; 283.15 K, x2 = 0.7063",1339.6 ± 2.1 m/s
same,speed of sound,"[1]; 283.15 K, x2 = 0.8072",1361 ± 2.1 m/s
same,speed of sound,"[1]; 283.15 K, x2 = 0.9076",1385.1 ± 2.1 m/s
same,speed of sound,"[1]; 283.15 K, x2 = 0.9528",1397 ± 2.1 m/s
same,speed of sound,"[1]; 298.15 K, x2 = 0.0488",1204.5 ± 2.3 m/s
same,speed of sound,"[1]; 298.15 K, x2 = 0.0945",1203.8 ± 2.3 m/s
same,speed of sound,"[1]; 298.15 K, x2 = 0.1818",1205.5 ± 2.2 m/s
same,speed of sound,"[1]; 298.15 K, x2 = 0.2983",1211.9 ± 2.2 m/s
same,speed of sound,"[1]; 298.15 K, x2 = 0.3959",1221.4 ± 2.2 m/s
same,speed of sound,"[1]; 298.15 K, x2 = 0.4962",1234.1 ± 2.2 m/s
same,speed of sound,"[1]; 298.15 K, x2 = 0.6067",1251.5 ± 2.1 m/s
same,speed of sound,"[1]; 298.15 K, x2 = 0.7034",1269.8 ± 2.1 m/s
same,speed of sound,"[1]; 298.15 K, x2 = 0.811",1293.3 ± 2.1 m/s
same,speed of sound,"[1]; 298.15 K, x2 = 0.9025",1316.4 ± 2.1 m/s
same,speed of sound,"[1]; 298.15 K, x2 = 0.9506",1329.6 ± 2.1 m/s
same,speed of sound,"[1]; 313.15 K, x2 = 0.0449",1128.5 ± 2.3 m/s
same,speed of sound,"[1]; 313.15 K, x2 = 0.094",1128.3 ± 2.3 m/s
same,speed of sound,"[1]; 313.15 K, x2 = 0.195",1131.3 ± 2.2 m/s
same,speed of sound,"[1]; 313.15 K, x2 = 0.2962",1138.6 ± 2.2 m/s
same,speed of sound,"[1]; 313.15 K, x2 = 0.3969",1149.5 ± 2.2 m/s
same,speed of sound,"[1]; 313.15 K, x2 = 0.4983",1163.6 ± 2.1 m/s
same,speed of sound,"[1]; 313.15 K, x2 = 0.5994",1180.8 ± 2.1 m/s
same,speed of sound,"[1]; 313.15 K, x2 = 0.6987",1200.2 ± 2.1 m/s
same,speed of sound,"[1]; 313.15 K, x2 = 0.8026",1223.8 ± 2.1 m/s
same,speed of sound,"[1]; 313.15 K, x2 = 0.9066",1250.8 ± 2.1 m/s
same,speed of sound,"[1]; 313.15 K, x2 = 0.9482",1263 ± 2.1 m/s
"C1COCO1 [1,3-dioxolane] + c1ccccc1",speed of sound,"[1]; 283.15 K, x1 = 0.1037",1373.9 ± 2.1 m/s
same,speed of sound,"[1]; 283.15 K, x1 = 0.2005",1377.2 ± 2.1 m/s
same,speed of sound,"[1]; 283.15 K, x1 = 0.2977",1380.5 ± 2.1 m/s
same,speed of sound,"[1]; 283.15 K, x1 = 0.4007",1383.5 ± 2.1 m/s
same,speed of sound,"[1]; 283.15 K, x1 = 0.4995",1386.6 ± 2.2 m/s
same,speed of sound,"[1]; 283.15 K, x1 = 0.5967",1389.7 ± 2.2 m/s
same,speed of sound,"[1]; 283.15 K, x1 = 0.6984",1393.7 ± 2.2 m/s
same,speed of sound,"[1]; 283.15 K, x1 = 0.7942",1397.3 ± 2.3 m/s
same,speed of sound,"[1]; 283.15 K, x1 = 0.8973",1401.7 ± 2.3 m/s
same,speed of sound,"[1]; 298.15 K, x1 = 0.1",1303.1 ± 2.1 m/s
same,speed of sound,"[1]; 298.15 K, x1 = 0.2022",1306.8 ± 2.1 m/s
same,speed of sound,"[1]; 298.15 K, x1 = 0.3002",1310.1 ± 2.1 m/s
same,speed of sound,"[1]; 298.15 K, x1 = 0.4021",1313.6 ± 2.1 m/s
same,speed of sound,"[1]; 298.15 K, x1 = 0.4957",1317 ± 2.2 m/s
same,speed of sound,"[1]; 298.15 K, x1 = 0.5968",1320.7 ± 2.2 m/s
same,speed of sound,"[1]; 298.15 K, x1 = 0.6965",1325.1 ± 2.2 m/s
same,speed of sound,"[1]; 298.15 K, x1 = 0.7985",1329.4 ± 2.2 m/s
same,speed of sound,"[1]; 298.15 K, x1 = 0.8973",1334.2 ± 2.3 m/s
same,speed of sound,"[1]; 313.15 K, x1 = 0.1006",1233.5 ± 2.1 m/s
same,speed of sound,"[1]; 313.15 K, x1 = 0.2",1237.2 ± 2.1 m/s
same,speed of sound,"[1]; 313.15 K, x1 = 0.2985",1240.9 ± 2.1 m/s
same,speed of sound,"[1]; 313.15 K, x1 = 0.4136",1245.1 ± 2.1 m/s
same,speed of sound,"[1]; 313.15 K, x1 = 0.4928",1248.1 ± 2.2 m/s
same,speed of sound,"[1]; 313.15 K, x1 = 0.5953",1252 ± 2.2 m/s
same,speed of sound,"[1]; 313.15 K, x1 = 0.6979",1256.3 ± 2.2 m/s
same,speed of sound,"[1]; 313.15 K, x1 = 0.7968",1261.2 ± 2.2 m/s
same,speed of sound,"[1]; 313.15 K, x1 = 0.8979",1266.3 ± 2.3 m/s
C1CCCC1 [cyclopentane],mass density,[2]; 283.15 K,754.9 ± 1.5 kg/m3
same,speed of sound,[2]; 283.15 K,1283.5 ± 2.3 m/s
same,mass density,[2]; 298.15 K,739.7 ± 1.5 kg/m3
same,speed of sound,[2]; 298.15 K,1206.6 ± 2.3 m/s
same,mass density,[2]; 313.15 K,724.7 ± 1.6 kg/m3
same,speed of sound,[2]; 313.15 K,1129.9 ± 2.3 m/s
"C1COCO1 [1,3-dioxolane]",mass density,[2]; 283.15 K,1077.1 ± 0.9 kg/m3
same,speed of sound,[2]; 283.15 K,1406.3 ± 2.3 m/s
same,mass density,[2]; 298.15 K,1058.8 ± 0.9 kg/m3
same,speed of sound,[2]; 298.15 K,1339.9 ± 2.3 m/s
same,mass density,[2]; 313.15 K,1040.2 ± 0.8 kg/m3
same,speed of sound,[2]; 313.15 K,1271.6 ± 2.3 m/s
